Reference: the supplement of paper PMC11451515

Tested on: P12-Ichikawa
Assay: cell viability relative to DMSO control; higher = less cytotoxic
Conditions: 48 h
In short: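 Viability, reported as a per-plate percentage of DMSO wells with cell-free wells as background, came from CellTiter-Glo One luminescence. Reading took place after 48 h at 37°C. Before that, NOMO1 or SEM (500 cells/well) or P12-Ichikawa (1000 cells/well) leukemia cells, adapted for at least four passages in each medium, were seeded in 1536-well plates (5 μl) and pin-dosed with library compounds in DMSO, 47 μM to 0.79 nM over 11 threefold points.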

[1] = HPLM + 10% dialyzed FBS, 0.000781 µM
[2] = HPLM + 10% dialyzed FBS, 0.00234 µM
[3] = HPLM + 10% dialyzed FBS, 0.00702 µM
[4] = HPLM + 10% dialyzed FBS, 0.0211 µM
[5] = HPLM + 10% dialyzed FBS, 0.0632 µM
[6] = HPLM + 10% dialyzed FBS, 0.19 µM
[7] = HPLM + 10% dialyzed FBS, 0.569 µM
[8] = HPLM + 10% dialyzed FBS, 1.71 µM
[9] = HPLM + 10% dialyzed FBS, 5.12 µM
[10] = HPLM + 10% dialyzed FBS, 15.4 µM
[11] = HPLM + 10% dialyzed FBS, 46.1 µM
[12] = RPMI 5 mM glucose + 10% dialyzed FBS, 0.000781 µM
[13] = RPMI 5 mM glucose + 10% dialyzed FBS, 0.00234 µM
[14] = RPMI 5 mM glucose + 10% dialyzed FBS, 0.00702 µM
[15] = RPMI 5 mM glucose + 10% dialyzed FBS, 0.0211 µM
[16] = RPMI 5 mM glucose + 10% dialyzed FBS, 0.0632 µM
[17] = RPMI 5 mM glucose + 10% dialyzed FBS, 0.19 µM
[18] = RPMI 5 mM glucose + 10% dialyzed FBS, 0.569 µM
[19] = RPMI 5 mM glucose + 10% dialyzed FBS, 1.71 µM
[20] = RPMI 5 mM glucose + 10% dialyzed FBS, 5.12 µM
[21] = RPMI 5 mM glucose + 10% dialyzed FBS, 15.4 µM
[22] = RPMI 5 mM glucose + 10% dialyzed FBS, 46.1 µM
[23] = RPMI 5 mM glucose + 10% FBS, 0.000781 µM
[24] = RPMI 5 mM glucose + 10% FBS, 0.00234 µM
[25] = RPMI 5 mM glucose + 10% FBS, 0.00702 µM
[26] = RPMI 5 mM glucose + 10% FBS, 0.0211 µM
[27] = RPMI 5 mM glucose + 10% FBS, 0.0632 µM
[28] = RPMI 5 mM glucose + 10% FBS, 0.19 µM
[29] = RPMI 5 mM glucose + 10% FBS, 0.569 µM
[30] = RPMI 5 mM glucose + 10% FBS, 1.71 µM
[31] = RPMI 5 mM glucose + 10% FBS, 5.12 µM
[32] = RPMI 5 mM glucose + 10% FBS, 15.4 µM
[33] = RPMI 5 mM glucose + 10% FBS, 46.1 µM

| Structure (SMILES) | cell viability [1] [%] | cell viability [2] [%] | cell viability [3] [%] | cell viability [4] [%] | cell viability [5] [%] | cell viability [6] [%] | cell viability [7] [%] | cell viability [8] [%] | cell viability [9] [%] | cell viability [10] [%] | cell viability [11] [%] | cell viability [12] [%] | cell viability [13] [%] | cell viability [14] [%] | cell viability [15] [%] | cell viability [16] [%] | cell viability [17] [%] | cell viability [18] [%] | cell viability [19] [%] | cell viability [20] [%] | cell viability [21] [%] | cell viability [22] [%] | cell viability [23] [%] | cell viability [24] [%] | cell viability [25] [%] | cell viability [26] [%] | cell viability [27] [%] | cell viability [28] [%] | cell viability [29] [%] | cell viability [30] [%] | cell viability [31] [%] | cell viability [32] [%] | cell viability [33] [%] |
| --- | --- | --- | --- | --- | --- | --- | --- | --- | --- | --- | --- | --- | --- | --- | --- | --- | --- | --- | --- | --- | --- | --- | --- | --- | --- | --- | --- | --- | --- | --- | --- | --- | --- |
| CCC(=O)O[C@@]1([C@@H](C)C[C@H]2[C@@H]3CCC/4=C/C(=O)/C=C\[C@]4(C)[C@@]3(F)[C@@H](O)C[C@]12C)C(=O)CCl | 118 | 121 | 101 | 86.8 | 79.2 | 73 | 76.9 | 76.9 | 70.2 | 68.6 | 55 | 134 | 107 | 83.8 | 79.9 | 59.9 | 61.3 | 56.2 | 57 | 54.1 | 51.3 | 38.5 |  |  |  |  |  |  |  |  |  |  |  |
| CCNC(=O)C[C@@H]1\N=C(C2=CC=C(Cl)C=C2)/C3=C(C=CC(=C3)OC)[N]4C(=NN=C14)C | 106 | 115 | 106 | 114 | 105 | 103 | 92.1 | 83.5 | 78.2 | 50.1 | 17 | 115 | 118 | 115 | 117 | 106 | 106 | 95.7 | 84 | 75.8 | 60.4 | 35.9 | 114 | 111 | 127 | 106 | 105 | 111 | 101 | 84.7 | 76 | 56.2 | 37.8 |
| COc1nc(-c2ccc3c(c2)OCO3)n(-c2ccc(NC(=O)CSc3ccccc3)cc2)n1 | 109 | 108 | 111 | 107 | 108 | 110 | 112 | 104 | 104 | 103 | 108 | 130 | 107 | 119 | 107 | 116 | 104 | 120 | 108 | 95.9 | 108 | 85.6 | 107 | 116 | 113 | 118 | 118 | 113 | 113 | 103 | 102 | 97.2 | 92.5 |
| C[C@H]1CN(C[C@@H](C)O1)CC(=O)NC2=CC=C3SC4=C(CC3=C2)C=CC=C4\C5=C\C(=O)\C=C(/O5)N6CCOCC6 | 91.6 | 113 | 73.7 | 110 | 110 | 123 | 116 | 108 | 107 | 80.3 | 51.1 | 94.7 | 119 | 86.3 | 116 | 120 | 122 | 128 | 118 | 121 | 88.1 | 48.9 | 97.8 | 113 | 66.9 | 125 | 110 | 120 | 114 | 124 | 109 | 95.8 | 49.8 |
| C[C@@H]1C[C@H]2[C@@H]3\C=C(C)/C4=C/C5=C(C[C@]4(C)[C@H]3[C@@H](O)C[C@]2(C)[C@@]1(O)C(=O)COC(C)=O)C=N[N]5C6=CC=CC=C6 | 111 | 107 | 99.2 | 91.8 | 67.8 | 61.6 | 58.1 | 58.7 | 59.6 | 51.4 | 55.8 | 114 | 99.7 | 91.7 | 72.2 | 53.3 | 44.1 | 38 | 39.5 | 38.7 | 38.1 | 32.9 | 123 | 127 | 98 | 85.1 | 62.3 | 54.6 | 45.6 | 51.5 | 49.2 | 46.5 | 46.9 |
| C[C@@H](c1ncncc1F)[C@](O)(Cn1cncn1)c1ccc(F)cc1F | 111 | 115 | 110 | 107 | 107 | 107 | 110 | 108 | 103 | 102 | 89.6 | 109 | 118 | 116 | 105 | 111 | 104 | 108 | 107 | 102 | 89.5 | 91.4 | 123 | 130 | 119 | 121 | 111 | 119 | 116 | 114 | 98.9 | 105 | 92.6 |
| Fc1ccc(C(c2ccc(F)cc2)N2CCN(C/C=C/c3ccccc3)CC2)cc1 | 110 | 121 | 111 | 109 | 109 | 114 | 108 | 108 | 103 | 99.1 | 96.5 | 113 | 104 | 121 | 109 | 102 | 110 | 114 | 106 | 104 | 98 | 95.2 | 118 | 112 | 109 | 121 | 116 | 119 | 112 | 107 | 110 | 106 | 104 |
| CNC(=O)c1cccc(-c2ccc3c(N4CCOC[C@@H]4C)nc(N4CCOC[C@@H]4C)nc3n2)c1 | 104 | 106 | 95 | 92.4 | 87.1 | 80.2 | 78.8 | 67.7 | 65.6 | 64.8 | 62.4 | 98.4 | 102 | 89.5 | 80.6 | 72.8 | 61.8 | 64.6 | 58.1 | 49.8 | 44.7 | 39.9 | 93.7 | 98.6 | 86.7 | 75.4 | 67.2 | 57.2 | 55.7 | 54.3 | 54.9 | 48.5 | 44.5 |
| OC[C@H]1O[C@@H](Oc2ccc(O)cc2)[C@H](O)[C@@H](O)[C@@H]1O | 85.1 | 93.5 | 93.1 | 95.7 | 98.3 | 99.9 | 102 | 101 | 94.2 | 98.4 | 97 | 80.1 | 84.8 | 91.1 | 93.4 | 93.6 | 87.8 | 88.4 | 88.7 | 93.1 | 89.6 | 88.4 | 80.7 | 79.8 | 87 | 94.9 | 95.7 | 86 | 84.7 | 83.6 | 90.9 | 93.1 | 91.3 |
| O=[N+]([O-])c1cn2c(n1)OC[C@@H](OCc1ccc(OC(F)(F)F)cc1)C2 | 124 | 126 | 121 | 120 | 120 | 111 | 113 | 111 | 112 | 118 | 110 | 120 | 116 | 111 | 126 | 115 | 113 | 113 | 100 | 101 | 109 | 107 | 124 | 125 | 138 | 141 | 131 | 132 | 127 | 118 | 105 | 111 | 121 |
| C#Cc1cccc(Nc2ncnc3cc(OCCOC)c(OCCO)cc23)c1 | 113 | 111 | 113 | 109 | 112 | 113 | 122 | 104 | 105 | 91.6 | 46.2 | 115 | 110 | 118 | 110 | 113 | 108 | 106 | 111 | 104 | 91.5 | 43.3 | 118 | 101 | 107 | 119 | 110 | 119 | 111 | 109 | 98.5 | 95.7 | 49.4 |
| CC(C)OC(=O)CCC/C=C\C[C@@H]1[C@@H](/C=C/[C@@H](O)COc2cccc(C(F)(F)F)c2)[C@H](O)C[C@@H]1O | 109 | 120 | 122 | 127 | 115 | 119 | 118 | 115 | 112 | 104 | 65.1 | 112 | 126 | 120 | 121 | 127 | 123 | 124 | 119 | 110 | 92.7 | 46.1 |  |  |  |  |  |  |  |  |  |  |  |
| Cc1ccc(C(C)(O)c2nc3ccccc3s2)c(C)c1 (stereo unspecified) | 97.8 | 110 | 103 | 108 | 106 | 114 | 82 | 109 | 79.4 | 37.5 | 10.2 | 95.5 | 103 | 102 | 111 | 111 | 98 | 101 | 108 | 79 | 63.9 | 13.2 | 91.2 | 105 | 107 | 111 | 100 | 107 | 91 | 113 | 70.8 | 51.2 | 8.46 |
| COCCOC(=O)C/1=C(C)/NC/2=C(C1C3=CC=CC(=C3)O)/C(=O)CC(C2)C4=C(OC)C=CC=C4 (stereo unspecified) | 94.3 | 97.9 | 102 | 105 | 110 | 100 | 106 | 105 | 91.5 | 86.7 | 26.8 | 94.8 | 97.9 | 91.7 | 104 | 101 | 104 | 101 | 94.7 | 87.6 | 88.1 | 46.8 | 103 | 102 | 104 | 112 | 118 | 110 | 113 | 101 | 96.3 | 89.5 | 54.1 |
| CC1(C)[C@@H](O[C@H]2O[C@H](C(=O)O)[C@@H](O)[C@H](O)[C@H]2O[C@@H]2O[C@H](C(=O)O)[C@@H](O)[C@H](O)[C@H]2O)CC[C@]2(C)[C@H]3C(=O)C=C4[C@@H]5C[C@@](C)(C(=O)O)CC[C@]5(C)CC[C@@]4(C)[C@]3(C)CC[C@@H]12 | 112 | 130 | 118 | 132 | 128 | 131 | 136 | 128 | 123 | 128 | 135 |  |  |  |  |  |  |  |  |  |  |  |  |  |  |  |  |  |  |  |  |  |  |
